The source of these data is paper PMC4266362 (Journal of Medicinal Chemistry, 2014).

Data set [1] is described as follows: in vivo rat pharmacokinetics. Conditions: male, Sprague-Dawley, plasma.
A further data set concerns the target glucagon receptor (GR) (Homo sapiens, UniProt P47871). Put plainly: duplexed calcium mobilization assay, glucagon receptor. The format is cell-based. The following applies: EC20 of glucagon. Background: Calcium assays in cells follow changes in intracellular calcium, usually with a dye or a luminescent sensor.
Another data set concerns primary mouse islets. Put plainly: glucose-stimulated insulin secretion, static islet incubation. Type of data set: cell-based.
For another data set, the target named is human GLP-1R (Homo sapiens, UniProt P43220). Put plainly: calcium mobilization PAM assay in human GLP-1R 9-3-H cells. The format is cell-based.
Data set [2] can be described thus: liver microsome predicted hepatic clearance, rat. Type of data set: in vitro ADME. The following applies: well-stirred model.
Data set [3] is described as follows: in vivo rat brain distribution. Conditions: Sprague-Dawley, intraperitoneal, 10 mg/kg.
Data set [4] has as its system 68 GPCRs, ion channels, and transporters. Put plainly: Eurofin radioligand binding panel. The following applies: 10 μM, 68 targets.
For the next data set, the system named is rats. Put plainly: spontaneous locomotor activity. The format is in vivo. The following applies: rat, 10–30 mg/kg i.p.
Data set [5] addresses melanocortin 4 receptor (MC4R) (Homo sapiens, UniProt P32245). Put plainly: counter-screen against melanocortin 4 receptor. The format is cell-based. On the technique in general: Counterscreens check selectivity or assay interference.

Structures are written as SMILES.

Chain of human GLP-1R (P43220 24-463): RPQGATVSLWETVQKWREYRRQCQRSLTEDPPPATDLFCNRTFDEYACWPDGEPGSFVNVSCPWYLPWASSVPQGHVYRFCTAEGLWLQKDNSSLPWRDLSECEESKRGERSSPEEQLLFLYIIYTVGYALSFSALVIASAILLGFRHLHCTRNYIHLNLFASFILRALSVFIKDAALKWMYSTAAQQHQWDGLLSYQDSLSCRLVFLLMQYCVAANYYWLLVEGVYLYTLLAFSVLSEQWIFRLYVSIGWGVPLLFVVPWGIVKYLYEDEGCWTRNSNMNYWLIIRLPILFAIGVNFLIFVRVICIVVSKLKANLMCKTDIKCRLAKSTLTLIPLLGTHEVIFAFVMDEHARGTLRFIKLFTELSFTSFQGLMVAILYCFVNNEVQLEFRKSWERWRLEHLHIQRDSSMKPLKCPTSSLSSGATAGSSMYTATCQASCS
Chain of glucagon receptor (GR) (P47871 26-477, species assumed): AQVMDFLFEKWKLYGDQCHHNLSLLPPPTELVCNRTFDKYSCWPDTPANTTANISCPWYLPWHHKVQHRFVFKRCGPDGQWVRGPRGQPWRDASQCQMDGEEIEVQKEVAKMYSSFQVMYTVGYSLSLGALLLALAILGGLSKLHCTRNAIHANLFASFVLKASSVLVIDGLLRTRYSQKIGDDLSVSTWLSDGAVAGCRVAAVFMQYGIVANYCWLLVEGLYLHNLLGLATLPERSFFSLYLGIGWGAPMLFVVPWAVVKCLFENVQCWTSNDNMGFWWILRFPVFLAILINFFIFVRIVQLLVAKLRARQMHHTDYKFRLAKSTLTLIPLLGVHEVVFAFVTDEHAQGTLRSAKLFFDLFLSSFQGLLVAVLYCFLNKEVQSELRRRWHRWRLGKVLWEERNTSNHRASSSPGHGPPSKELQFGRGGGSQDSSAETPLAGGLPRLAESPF
Chain of melanocortin 4 receptor (MC4R) (P32245 whole entry, species assumed): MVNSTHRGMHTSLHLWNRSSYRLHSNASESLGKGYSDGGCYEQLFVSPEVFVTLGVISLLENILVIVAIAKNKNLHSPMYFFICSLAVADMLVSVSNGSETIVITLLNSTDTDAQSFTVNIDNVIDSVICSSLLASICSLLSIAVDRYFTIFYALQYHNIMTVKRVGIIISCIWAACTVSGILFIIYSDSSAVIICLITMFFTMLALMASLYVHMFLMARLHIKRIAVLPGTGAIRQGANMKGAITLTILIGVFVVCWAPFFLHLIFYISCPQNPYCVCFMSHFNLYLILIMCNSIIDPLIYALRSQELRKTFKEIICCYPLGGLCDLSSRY

`CCN1CCC[C@H]1CNC(=O)c1cn(C2CCCC2)c(=O)c2c1c1ccccc1n2C` [(S)-8] gave a clearance in [1] of 92 mL/min/kg. Besides, on glucagon receptor (GR), the “activity at GR” value is “no effect”. Moreover, the “potentiation of glucose-stimulated insulin secretion” value in the data set with primary mouse islets (primary mouse islets, in the presence of 2) is around 1.5 fold. For the same compound, the “calcium response in the absence of GLP-1” value on human GLP-1R (compound alone) is on record as “no calcium response”. In addition, the “rat CLHEP” value in data set [2] is recorded as 69 mL/min/kg.
With `CC(C)N1CCC[C@H]1CNC(=O)c1cn(C2CCCC2)c(=O)c2c1c1ccccc1n2C` [(S)-9b, (S)-2-Cyclopentyl-N-((1-isopropylpyrrolidin-2-yl)methyl)-9-methyl-1-oxo-2,9-dihydro-1H-pyrido[3,4-b]indole-4-carboxamide], the half-life in data set [1] (intravenous, 1 mg/kg) was around 60 min. For the same compound, the Tmax in data set [3] is 30 min. Besides, the “effect on insulin secretion” value in the data set with primary mouse islets (30 μM, in presence of 10 nM 1, low (5.6 mM) and high (11 mM) glucose, 60 min) is reported as “significantly increased insulin secretion”. Further, the “GLP-1R PAM activity / mode (pure PAM or ago-PAM)” value on human GLP-1R (calcium mobilization) is reported as “ago-PAMs”. For the same compound, in [4], the “highest inhibition in radioligand binding panel” value was at most 50%. Also, the “effect on spontaneous locomotor activity” value in the data set on rats is on record as “no effect on locomotion or sedative effects”.
For `CCN1CCCC1CNC(=O)c1cn(C2CCCC2)c(=O)c2c1c1ccccc1n2C` (stereo not shown) [compound 8], in [5], the “activity at MC4R” value was “inactive”. The “activity at GR” value on glucagon receptor (GR) was “inactive”.

What is called clearance is a measure of how efficiently the substance is removed, as volume per time. A lower clearance goes with inefficient removal. As usually defined, the half-life is the time in which the quantity being followed falls by half. A high value points to slow loss. What is called Tmax is the time from dosing to the highest level.
